pIC50: −log10 of the molar value.
Columns and labels:
human MetAP2 enzyme [1] = target: T1, human MetAP2 enzyme (Homo sapiens, UniProt P50579); experiment: MetAP2 enzyme assay, enzyme complexed with manganese ions; conditions: MetAP2 Mn pIC50, MetAP2 enzyme complexed with manganese ions; Met-AMC substrate at Km
human MetAP2 enzyme [2] = target: T1, human MetAP2 enzyme; experiment: MetAP2 enzyme assay, enzyme complexed with cobalt ions; conditions: MetAP2 Co pIC50, MetAP2 enzyme complexed with cobalt ions; Met-AMC substrate at Km

T1 sequence (P50579 whole entry): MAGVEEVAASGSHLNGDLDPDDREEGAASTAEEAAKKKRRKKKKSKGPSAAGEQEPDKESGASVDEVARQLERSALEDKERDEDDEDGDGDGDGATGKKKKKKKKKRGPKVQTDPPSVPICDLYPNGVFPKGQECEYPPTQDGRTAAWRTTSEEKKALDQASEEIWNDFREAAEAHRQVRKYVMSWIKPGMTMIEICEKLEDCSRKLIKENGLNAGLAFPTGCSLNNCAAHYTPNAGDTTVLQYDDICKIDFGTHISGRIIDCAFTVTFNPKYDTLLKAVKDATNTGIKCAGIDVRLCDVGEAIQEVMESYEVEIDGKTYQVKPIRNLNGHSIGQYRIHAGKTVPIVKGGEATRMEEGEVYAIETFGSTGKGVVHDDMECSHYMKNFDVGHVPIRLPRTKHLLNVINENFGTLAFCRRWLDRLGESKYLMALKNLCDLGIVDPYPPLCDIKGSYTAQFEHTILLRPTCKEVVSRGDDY

SMILES	pIC50 (human MetAP2 enzyme [1])	pIC50 (human MetAP2 enzyme [2])
Cc1n[nH]c(C)c1-c1cc(C(F)(F)F)cc2[nH]ncc12 [Example 83, 4-(3,5-dimethyl-1H-pyrazol-4-yl)-6-(trifluoromethyl)-1H-indazole]	7.70	7.40
CN(C)C(=O)Cn1c(=O)c(-c2cc(C(F)(F)F)cc3[nH]ncc23)cn(C)c1=O [Example 309, N,N-dimethyl-2-(3-methyl-2,6-dioxo-5-(6-(trifluoromethyl)-1H-indazol-4-yl)-2,3-dihydropyrimidin-1(6H)-yl)acetamide]	7.70	6.00
NC(=O)c1ccc2ncc(-c3cc(C(F)(F)F)cc4[nH]ncc34)n2n1 [Example 276, 3-(6-(trifluoromethyl)-1H-indazol-4-yl)imidazo[1,2-b]pyridazine-6-carboxamide]	7.40	6.40
Nc1nc(Cl)ncc1-c1cc(C(F)(F)F)cc2[nH]ncc12 [Example 191, 2-chloro-5-(6-(trifluoromethyl)-1H-indazol-4-yl)pyrimidin-4-amine]	7.60	6.10
NC(=O)c1cc(-c2cc(C(F)(F)F)cc3[nH]ncc23)ccc1Cl [Example 63, 2-chloro-5-(6-(trifluoromethyl)-1H-indazol-4-yl)benzamide]	7.80	7.20
O=C1COc2c(cccc2-c2cc(C(F)(F)F)cc3[nH]ncc23)N1 [Example 139, 8-(6-(trifluoromethyl)-1H-indazol-4-yl)-2H-benzo[b][1,4]oxazin-3(4H)-one]	8.00	7.40
Cc1cccnc1-c1cc(C(F)(F)F)cc2[nH]ncc12 [Example 135, 4-(3-methylpyridin-2-yl)-6-(trifluoromethyl)-1H-indazole]	8.00	6.80
CNC(=O)c1ccc(-c2cc(C(F)(F)F)cc3[nH]ncc23)cc1F [Example 92, 2-fluoro-N-methyl-4-(6-(trifluoromethyl)-1H-indazol-4-yl)benzamide]	8.40	7.30
FC(F)(F)c1cc(-c2cccc(-n3cccn3)c2)c2cn[nH]c2c1 [Example 69, 4-(3-(1H-pyrazol-1-yl)phenyl)-6-(trifluoromethyl)-1H-indazole]	8.20	6.80
COc1nc(C#N)ccc1-c1cc(C(F)(F)F)cc2[nH]ncc12 [Example 396, 6-methoxy-5-(6-(trifluoromethyl)-1H-indazol-4-yl)picolinonitrile]	7.90	6.90
Cc1onc(N)c1-c1cc(C(F)(F)F)cc2[nH]ncc12 [Example 166, 5-methyl-4-(6-(trifluoromethyl)-1H-indazol-4-yl)isoxazol-3-amine]	7.40	6.10
Cc1nn2c(=O)[nH]ncc2c1-c1cc(C(F)(F)F)cc2[nH]ncc12 [Example 222, 2-methyl-3-(6-(trifluoromethyl)-1H-indazol-4-yl)pyrazolo[1,5-d][1,2,4]triazin-7(6H)-one]	7.80	6.60
Cn1cc(C(=O)NCCO)cc(-c2cc(C(F)(F)F)cc3[nH]ncc23)c1=O [Example 315, N-(2-hydroxyethyl)-1-methyl-6-oxo-5-(6-(trifluoromethyl)-1H-indazol-4-yl)-1,6-dihydropyridine-3-carboxamide]	8.00	6.50
CCN(CC)C(=O)c1cccc(-c2cc(C(F)(F)F)cc3[nH]ncc23)c1 [Example 32, N,N-diethyl-3-(6-(trifluoromethyl)-1H-indazol-4-yl)benzamide]	7.70	7.40
CN(C)S(=O)(=O)c1cccc(-c2cc(C(F)(F)F)cc3[nH]ncc23)c1 [Example 108, N,N-dimethyl-3-(6-(trifluoromethyl)-1H-indazol-4-yl)benzenesulfonamide]	7.90	7.10
COc1ncc(-c2cc(C(F)(F)F)cc3[nH]ncc23)cc1C(=O)NCCO [Example 285, N-(2-hydroxyethyl)-2-methoxy-5-(6-(trifluoromethyl)-1H-indazol-4-yl)nicotinamide]	8.40	7.30
CNC(=O)c1ccc(-c2cc(C(F)(F)F)cc3[nH]ncc23)cn1 [Example 97, N-methyl-5-(6-(trifluoromethyl)-1H-indazol-4-yl)picolinamide]	8.60	7.30
NC(=O)c1ncc(-c2cc(C(F)(F)F)cc3[nH]ncc23)cn1 [Example 295, 5-(6-(trifluoromethyl)-1H-indazol-4-yl)pyrimidine-2-carboxamide]	8.20	6.70
Cn1ccnc1-c1cc(C(F)(F)F)cc2[nH]ncc12 [Example 147, 4-(1-methyl-1H-imidazol-2-yl)-6-(trifluoromethyl)-1H-indazole]	6.90	5.30
Nc1ncc(-c2cc(C(F)(F)F)cc3[nH]ncc23)cc1C(=O)NCCO [Example 230, 2-amino-N-(2-hydroxyethyl)-5-(6-(trifluoromethyl)-1H-indazol-4-yl)nicotinamide]	8.10	6.80

SMILES	pIC50 (human MetAP2 enzyme [1])	pIC50 (human MetAP2 enzyme [2])
FC(F)(F)c1cc(-c2cnc3cnccn23)c2cn[nH]c2c1 [Example 152, 3-(6-(trifluoromethyl)-1H-indazol-4-yl)imidazo[1,2-a]pyrazine]	6.90	5.70
C[C@@H](O)CNc1ncc(-c2cc(C(F)(F)F)cc3[nH]ncc23)cn1 [Example 207, (R)-1-(5-(6-(trifluoromethyl)-1H-indazol-4-yl)pyrimidin-2-ylamino)propan-2-ol]	8.10	7.10
Cc1c(-c2cc(C(F)(F)F)cc3[nH]ncc23)ccc(=O)n1Cc1ccccn1 [Example 407, 6-methyl-1-(pyridin-2-ylmethyl)-5-(6-(trifluoromethyl)-1H-indazol-4-yl)pyridin-2(1H)-one]	7.90	7.10
COc1nc(C(N)=O)ccc1-c1cc(C(F)(F)F)cc2[nH]ncc12 [Example 391, 6-methoxy-5-(6-(trifluoromethyl)-1H-indazol-4-yl)picolinamide]	8.30	7.40
Cc1nn(CC(=O)NCCO)cc1-c1cc(C(F)(F)F)cc2[nH]ncc12 [Example 279, N-(2-hydroxyethyl)-2-(3-methyl-4-(6-(trifluoromethyl)-1H-indazol-4-yl)-1H-pyrazol-1-yl)acetamide]	8.30	7.30
CN1CCN(C(=O)c2cncc(-c3cc(C(F)(F)F)cc4[nH]ncc34)c2)CC1 [Example 287, (4-methylpiperazin-1-yl)(5-(6-(trifluoromethyl)-1H-indazol-4-yl)pyridin-3-yl)methanone]	8.40	7.20
Cc1ncsc1-c1cc(C(F)(F)F)cc2[nH]ncc12 [Example 177, 4-methyl-5-(6-(trifluoromethyl)-1H-indazol-4-yl)thiazole]	8.40	7.30
FC(F)(F)c1cc(-c2ccc3[nH]ncc3c2)c2cn[nH]c2c1 [Example 236, 6-(trifluoromethyl)-1H,1′H-4,5′-biindazole]	8.20	7.20
OCc1ccc(Cl)c(-c2cc(C(F)(F)F)cc3[nH]ncc23)c1 [Example 128, (4-chloro-3-(6-(trifluoromethyl)-1H-indazol-4-yl)phenyl)methanol]	7.90	7.40
COc1ccc(CC(=O)NCCO)cc1-c1cc(C(F)(F)F)cc2[nH]ncc12 [Example 320, N-(2-hydroxyethyl)-2-(4-methoxy-3-(6-(trifluoromethyl)-1H-indazol-4-yl)phenyl)acetamide]	7.80	7.60
Cc1cc(Cn2nc(C)c(-c3cc(C(F)(F)F)cc4[nH]ncc34)c2CO)on1 (single isomer, unassigned) [Example 412, (3-methyl-1-((3-methylisoxazol-5-yl)methyl)-4-(6-(trifluoromethyl)-1H-indazol-4-yl)-1H-pyrazol-5-yl)methanol]	8.40	7.80
COc1ccc(C(=O)N2CCN(C)CC2)cc1-c1cc(C(F)(F)F)cc2[nH]ncc12 [Example 266, (4-methoxy-3-(6-(trifluoromethyl)-1H-indazol-4-yl)phenyl)(4-methylpiperazin-1-yl)methanone]	7.90	7.20
N#Cc1ccc2ncc(-c3cc(C(F)(F)F)cc4[nH]ncc34)n2c1 [Example 153, 3-(6-(trifluoromethyl)-1H-indazol-4-yl)imidazo[1,2-a]pyridine-6-carbonitrile]	7.60	6.70
Cc1c[nH]c2ncc(-c3cc(C(F)(F)F)cc4[nH]ncc34)cc12 [Example 340, 4-(3-methyl-1H-pyrrolo[2,3-b]pyridin-5-yl)-6-(trifluoromethyl)-1H-indazole]	7.80	7.00
CN(C)S(=O)(=O)c1ccccc1-c1cc(C(F)(F)F)cc2[nH]ncc12 [Example 183, N,N-dimethyl-2-(6-(trifluoromethyl)-1H-indazol-4-yl)benzenesulfonamide]	7.40	6.50
COc1ccc(C(=O)N2CCN(C)C(=O)C2)cc1-c1cc(C(F)(F)F)cc2[nH]ncc12 [Example 325, 4-(4-methoxy-3-(6-(trifluoromethyl)-1H-indazol-4-yl)benzoyl)-1-methylpiperazin-2-one]	7.60	7.20
NC(=O)c1ccc(-c2cc(C(F)(F)F)cc3[nH]ncc23)c(F)c1 [Example 321, 3-fluoro-4-(6-(trifluoromethyl)-1H-indazol-4-yl)benzamide]	7.80	7.70
COc1cc(C)c(-c2cc(C(F)(F)F)cc3[nH]ncc23)cn1 [Example 253, 4-(6-methoxy-4-methylpyridin-3-yl)-6-(trifluoromethyl)-1H-indazole]	8.00	7.20
Cn1cc(C(=O)NCC#N)cc(-c2cc(C(F)(F)F)cc3[nH]ncc23)c1=O [Example 354, N-(cyanomethyl)-1-methyl-6-oxo-5-(6-(trifluoromethyl)-1H-indazol-4-yl)-1,6-dihydropyridine-3-carboxamide]	8.20	6.50

— patent publication US9434743B2, “Indazole derivatives” (TAKEDA PHARMACEUTICAL COMPANY LIMITED, priority 2012, dated 2016)
